Literature values in patent US20040132806A1, “Pravastatin pharmaceutical formulations and methods of their use” (priority 2002, published 2004).
Where two headings read alike, the source gives them in different places.

What was measured:
[1] = intravenous, radiolabeled
[2] = not given; remark: listed apart in the source
[3] = such as the stomach
[4] = patients treated with pravastatin (Schatke et al, 1992)

decrease of systemic bioavailability following a bedtime dose (PM) compared to morning (AM) dose (PM vs AM dose): 60%
average oral absorption (based on urinary recovery of radiolabeled drug): 34%
radiolabeled oral dose excreted in the feces (oral radiolabeled dose): ~70%
radiolabeled oral dose excreted in urine (oral radiolabeled dose): Approximately 20%
share of total body clearance by non-renal routes (biliary excretion and biotransformation) [1]: ~53%
share of total body clearance via renal excretion [1]: approximately 47%
hepatic extraction ratio ([2]; Lennernas & Fager, 1997): 0.45
hepatic extraction ratio ([2]; Quion & Jones, 1994): 0.66
first-pass extraction in the liver (extraction ratio) ([2]; in vivo): 0.66
stability in acidic conditions [3]: poor stability
myopathy [4]: Severe myopathy has been observed
Structure (SMILES): CC[C@H](C)C(=O)O[C@H]1C[C@H](O)C=C2C=C[C@H](C)[C@H](CC[C@@H](O)C[C@@H](O)CC(=O)O)[C@H]21 [pravastatin, Pravastatin]
